In ChEMBL document CHEMBL4321845, “Discovery and Characterization of Potent Pan-Genotypic HCV NS5A Inhibitors Containing Novel Tricyclic Central Core Leading to Clinical Candidate” (J Med Chem, 2019):

Legend:
[1] = Drug metabolism in rat liver microsomes assessed as metabolic rate at 1 uM preincubated for 5 mins before NADPH addition and measured up to 30 mins by LC-MS/MS analysis; format: ADME, Microsome; conditions: 0.5 h
[2] = Drug metabolism in human liver microsomes assessed as metabolic rate at 1 uM preincubated for 5 mins before NADPH addition and measured up to 30 mins by LC-MS/MS analysis; format: ADME, Microsome; conditions: 0.5 h
CYP2D6 = CYP2D6 (Homo sapiens, UniProt P10635); assay: Inhibition of CYP2D6 in pooled human liver microsomes at 10 uM pre-incubated for 5 mins before NADPH addition and measured after 10 mins by UPLC-MS/MS analysis relative to control; format: ADME
CYP2C9 = CYP2C9 (Homo sapiens, UniProt P11712); assay: Inhibition of CYP2C9 in pooled human liver microsomes at 10 uM pre-incubated for 5 mins before NADPH addition and measured after 10 mins by UPLC-MS/MS analysis relative to control; format: ADME
CYP3A4 = CYP3A4 (Homo sapiens, UniProt P08684); assay: Inhibition of CYP3A4 in pooled human liver microsomes at 10 uM pre-incubated for 5 mins before NADPH addition and measured after 10 mins by UPLC-MS/MS analysis relative to control; format: ADME
[3] = Cytotoxicity in human HuH7 cells assessed as inhibition of cell growth at 3 uM incubated for 72 hrs by CCK8 assay relative to control; format: cell-based, Huh-7; conditions: read-out: GI
[4] = Cytotoxicity in human HepG2 cells assessed as inhibition of cell growth at 3 uM incubated for 72 hrs by CCK8 assay relative to control; format: cell-based; conditions: read-out: GI
[5] = Cytotoxicity in human HepG2 cells assessed as inhibition of cell growth at 10 uM incubated for 72 hrs by CCK8 assay relative to control; format: cell-based; conditions: read-out: GI
[6] = Cytotoxicity in human HEK293 cells assessed as inhibition of cell growth at 3 uM incubated for 72 hrs by CCK8 assay relative to control; format: cell-based; conditions: read-out: GI
[7] = Cytotoxicity in human HEK293 cells assessed as inhibition of cell growth at 10 uM incubated for 72 hrs by CCK8 assay relative to control; format: cell-based; conditions: read-out: GI
[8] = AUC(last) in rat at 1 mg/kg, iv measured up to 24 hrs by LC-MS/MS analysis; format: ADME, organism-based; parameters: dose 1 mg/kg, route intravenous, time 0 - last; conditions: in vivo
[9] = Half life in rat at 1 mg/kg, iv measured up to 24 hrs by LC-MS/MS analysis; format: ADME, organism-based; conditions: in vivo
[10] = Clearance in rat at 1 mg/kg, iv measured up to 24 hrs by LC-MS/MS analysis; format: ADME, organism-based; conditions: in vivo
[11] = Volume of distribution at steady state in rat at 1 mg/kg, iv measured up to 24 hrs by LC-MS/MS analysis; format: ADME, organism-based; conditions: in vivo, read-out: Vdss
[12] = Cmax in rat at 10 mg/kg, po measured up to 24 hrs by LC-MS/MS analysis; format: ADME, organism-based; parameters: dose 10 mg/kg, route oral; conditions: in vivo
[13] = AUC (last) in rat at 10 mg/kg, po measured up to 24 hrs by LC-MS/MS analysis; format: ADME, organism-based; parameters: dose 10 mg/kg, time 0 - last, route oral; conditions: in vivo
[14] = Oral bioavailability in rat at 10 mg/kg measured up to 24 hrs by LC-MS/MS analysis; format: ADME, organism-based; conditions: in vivo
[15] = Drug level in liver of Wistar rat at 10 mg/kg, po measured at 4 hrs by LC-MS/MS analysis; format: ADME, organism-based; conditions: read-out: Drug uptake
[16] = Drug level in plasma of Wistar rat at 10 mg/kg, po measured at 4 hrs by LC-MS/MS analysis; format: ADME, organism-based
[17] = Ratio of dug level in liver to plasma of Wistar rat at 10 mg/kg, po measured at 4 hrs by LC-MS/MS analysis; format: ADME, organism-based
[18] = Drug level in liver of Wistar rat at 10 mg/kg, po measured up to 8 hrs by LC-MS/MS analysis; format: ADME, organism-based; conditions: in vivo
[19] = Cytotoxicity in human HuH7 cells assessed as inhibition of cell growth at 10 uM incubated for 72 hrs by CCK8 assay relative to control; format: cell-based, Huh-7; conditions: read-out: GI
[20] = Protein binding in rat plasma; format: ADME, cell-free; conditions: read-out: PPB
[21] = Protein binding in human plasma; format: ADME, cell-free; conditions: read-out: PPB
[22] = Tmax in rat at 10 mg/kg, po measured up to 24 hrs by LC-MS/MS analysis; format: ADME, organism-based; conditions: in vivo
[23] = Tmax in rat at 30 mg/kg, po measured up to 24 hrs by LC-MS/MS analysis; format: ADME, organism-based; conditions: in vivo
[24] = Tmax in rat at 100 mg/kg, po measured up to 24 hrs by LC-MS/MS analysis; format: ADME, organism-based; conditions: in vivo
[25] = Tmax in beagle dog at 10 mg/kg, po measured up to 24 hrs by LC-MS/MS analysis; format: ADME, organism-based, Canis lupus familiaris; conditions: in vivo
[26] = Tmax in beagle dog at 30 mg/kg, po measured up to 24 hrs by LC-MS/MS analysis; format: ADME, organism-based, Canis lupus familiaris; conditions: in vivo
[27] = Tmax in beagle dog at 100 mg/kg, po measured up to 24 hrs by LC-MS/MS analysis; format: ADME, organism-based, Canis lupus familiaris; conditions: in vivo
[28] = Cmax in rat at 30 mg/kg, po measured up to 24 hrs by LC-MS/MS analysis; format: ADME, organism-based; parameters: dose 30 mg/kg, route oral; conditions: in vivo
[29] = Cmax in rat at 100 mg/kg, po measured up to 24 hrs by LC-MS/MS analysis; format: ADME, organism-based; parameters: dose 100 mg/kg, route oral; conditions: in vivo
[30] = Cmax in beagle dog at 10 mg/kg, po measured up to 24 hrs by LC-MS/MS analysis; format: ADME, organism-based, Canis lupus familiaris; parameters: dose 10 mg/kg, route oral; conditions: in vivo
[31] = Cmax in beagle dog at 30 mg/kg, po measured up to 24 hrs by LC-MS/MS analysis; format: ADME, organism-based, Canis lupus familiaris; parameters: dose 30 mg/kg, route oral; conditions: in vivo
[32] = Cmax in beagle dog at 100 mg/kg, po measured up to 24 hrs by LC-MS/MS analysis; format: ADME, organism-based, Canis lupus familiaris; parameters: dose 100 mg/kg, route oral; conditions: in vivo
[33] = AUC (last) in rat at 30 mg/kg, po measured up to 24 hrs by LC-MS/MS analysis; format: ADME, organism-based; parameters: dose 30 mg/kg, time 0 - last, route oral; conditions: in vivo
[34] = AUC (last) in rat at 100 mg/kg, po measured up to 24 hrs by LC-MS/MS analysis; format: ADME, organism-based; parameters: dose 100 mg/kg, time 0 - last, route oral; conditions: in vivo
[35] = AUC (last) in beagle dog at 10 mg/kg, po measured up to 24 hrs by LC-MS/MS analysis; format: ADME, organism-based, Canis lupus familiaris; parameters: dose 10 mg/kg, time 0 - last, route oral; conditions: in vivo
[36] = AUC (last) in beagle dog at 30 mg/kg, po measured up to 24 hrs by LC-MS/MS analysis; format: ADME, organism-based, Canis lupus familiaris; parameters: dose 30 mg/kg, route oral, time 0 - last; conditions: in vivo
[37] = AUC (last) in beagle dog at 100 mg/kg, po measured up to 24 hrs by LC-MS/MS analysis; format: ADME, organism-based, Canis lupus familiaris; parameters: dose 100 mg/kg, route oral, time 0 - last; conditions: in vivo
[38] = AUC(last) in beagle dog at 1 mg/kg, iv measured up to 24 hrs by LC-MS/MS analysis; format: ADME, organism-based, Canis lupus familiaris; parameters: dose 1 mg/kg, route intravenous, time 0 - last; conditions: in vivo
[39] = Half life in beagle dog at 1 mg/kg, iv measured up to 24 hrs by LC-MS/MS analysis; format: ADME, organism-based, Canis lupus familiaris; conditions: in vivo
[40] = Clearance in beagle dog at 1 mg/kg, iv measured up to 24 hrs by LC-MS/MS analysis; format: ADME, organism-based, Canis lupus familiaris; conditions: in vivo
[41] = Volume of distribution at steady state in beagle dog at 1 mg/kg, iv measured up to 24 hrs by LC-MS/MS analysis; format: ADME, organism-based, Canis lupus familiaris; conditions: in vivo, read-out: Vdss
[42] = Oral bioavailability in beagle dog at 10 mg/kg measured up to 24 hrs by LC-MS/MS analysis; format: ADME, organism-based, Canis lupus familiaris; conditions: in vivo

Chain of CYP3A4 (P08684 whole entry): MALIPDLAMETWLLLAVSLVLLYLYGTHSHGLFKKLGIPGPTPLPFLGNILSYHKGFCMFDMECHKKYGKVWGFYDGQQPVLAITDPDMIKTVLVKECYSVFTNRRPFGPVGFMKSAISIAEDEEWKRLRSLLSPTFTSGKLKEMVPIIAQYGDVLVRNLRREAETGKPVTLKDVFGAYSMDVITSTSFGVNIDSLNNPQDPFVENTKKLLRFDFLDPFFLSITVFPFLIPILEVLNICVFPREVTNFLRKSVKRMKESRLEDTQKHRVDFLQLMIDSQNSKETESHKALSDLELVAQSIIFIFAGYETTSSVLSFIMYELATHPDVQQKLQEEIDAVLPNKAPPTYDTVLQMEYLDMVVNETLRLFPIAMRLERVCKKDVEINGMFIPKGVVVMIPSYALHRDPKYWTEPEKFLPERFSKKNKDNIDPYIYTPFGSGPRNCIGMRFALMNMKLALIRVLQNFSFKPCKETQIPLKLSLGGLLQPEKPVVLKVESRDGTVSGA
Chain of CYP2D6 (P10635 whole entry): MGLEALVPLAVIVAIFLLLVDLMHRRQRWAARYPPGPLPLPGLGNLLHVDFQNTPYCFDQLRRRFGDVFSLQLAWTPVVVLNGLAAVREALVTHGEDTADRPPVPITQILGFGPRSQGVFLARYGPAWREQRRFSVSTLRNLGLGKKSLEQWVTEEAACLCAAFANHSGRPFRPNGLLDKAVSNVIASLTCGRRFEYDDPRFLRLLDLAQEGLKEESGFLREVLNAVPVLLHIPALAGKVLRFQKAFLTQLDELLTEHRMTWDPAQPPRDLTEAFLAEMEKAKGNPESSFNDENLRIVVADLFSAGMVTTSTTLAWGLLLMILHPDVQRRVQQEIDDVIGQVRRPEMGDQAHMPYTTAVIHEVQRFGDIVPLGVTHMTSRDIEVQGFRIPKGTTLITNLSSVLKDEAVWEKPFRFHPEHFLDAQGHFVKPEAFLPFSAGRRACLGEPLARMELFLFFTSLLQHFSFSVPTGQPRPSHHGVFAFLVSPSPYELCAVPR
Chain of CYP2C9 (P11712 whole entry): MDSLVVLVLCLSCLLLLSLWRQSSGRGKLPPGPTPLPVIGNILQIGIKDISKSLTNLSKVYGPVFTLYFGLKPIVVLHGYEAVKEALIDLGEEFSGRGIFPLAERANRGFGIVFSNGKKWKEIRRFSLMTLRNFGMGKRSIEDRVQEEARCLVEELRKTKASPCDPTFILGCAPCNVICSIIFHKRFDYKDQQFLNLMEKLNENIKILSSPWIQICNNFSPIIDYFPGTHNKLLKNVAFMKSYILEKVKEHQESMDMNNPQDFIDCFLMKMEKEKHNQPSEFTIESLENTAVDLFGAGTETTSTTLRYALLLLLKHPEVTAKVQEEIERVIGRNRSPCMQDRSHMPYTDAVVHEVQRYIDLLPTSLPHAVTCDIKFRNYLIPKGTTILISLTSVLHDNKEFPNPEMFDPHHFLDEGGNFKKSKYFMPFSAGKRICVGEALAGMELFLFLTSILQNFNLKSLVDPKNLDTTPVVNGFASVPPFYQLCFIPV

COC(=O)N[C@H](C(=O)N1CCC[C@H]1c1ncc(-c2ccc3c(c2)OCC(C)(C)COc2cc(-c4cnc([C@@H]5CCCN5C(=O)[C@@H](NC(=O)OC)C(C)C)[nH]4)ccc2-3)[nH]1)C(C)C
Drug metabolism [1]: 0.01 nmol/min/mg | Drug metabolism [2]: 0.02 nmol/min/mg | inhibition at 10 min, 10 µM (CYP2D6): 17% | inhibition at 10 min, 10 µM (CYP2C9): 0% | inhibition at 10 min, 10 µM (CYP3A4): 0% | inhibition at 72 h, 3 µM [3]: 4% | inhibition at 72 h, 3 µM [4]: 8% | inhibition at 72 h, 10 µM [5]: 35% | inhibition at 72 h, 3 µM [6]: 17% | inhibition at 72 h, 10 µM [7]: 33% | AUC(0-t) at 24 h [8]: 1.1 µM·h | half-life [9]: 2.1 h | clearance [10]: 17 mL/min/kg | Vd [11]: 2.3 L/kg | Cmax [12]: 1.9 µM | AUC(0-t) at 24 h [13]: 5.2 µM·h | bioavailability [14]: 47% | concentration at 4 h [15]: 7.6 µM | concentration at 4 h [16]: 0.62 µM | Kp at 4 h [17]: 13 | Drug uptake [18]: Active

COC(=O)N[C@H](C(=O)N1CCC[C@H]1c1ncc(-c2ccc3c(ccc4cc(-c5cnc([C@@H]6CCCN6C(=O)[C@@H](NC(=O)OC)C(C)C)[nH]5)sc43)c2)[nH]1)C(C)C
Drug metabolism [1]: 0.01 nmol/min/mg | Drug metabolism [2]: 0.04 nmol/min/mg | inhibition at 10 min, 10 µM (CYP2D6): 12% | inhibition at 10 min, 10 µM (CYP2C9): 42% | inhibition at 10 min, 10 µM (CYP3A4): 12% | inhibition at 72 h, 3 µM [3]: 0% | inhibition at 72 h, 10 µM [19]: 14% | inhibition at 72 h, 3 µM [4]: 3% | inhibition at 72 h, 10 µM [5]: 22% | inhibition at 72 h, 3 µM [6]: 0% | inhibition at 72 h, 10 µM [7]: 36% | AUC(0-t) at 24 h [8]: 2 µM·h | half-life [9]: 2 h | clearance [10]: 11 mL/min/kg | Vd [11]: 2 L/kg | Cmax [12]: 0.9 to 1 µM | AUC(0-t) at 24 h [13]: 4 to 6 µM·h | bioavailability [14]: 30% | concentration at 4 h [15]: 8.5 µM | concentration at 4 h [16]: 0.6 µM | Kp at 4 h [17]: 14.5 | fraction unbound [20]: < 0.01 | fraction unbound [21]: < 0.01 | Drug uptake [18]: Active | Tmax [22]: 4 to 6 h | Tmax [23]: 4 to 6 h | Tmax [24]: 4 to 6 h | Tmax [25]: 1 h | Tmax [26]: 4 h | Tmax [27]: 3 h | Cmax [28]: 3 µM | Cmax [29]: 15 µM | Cmax [30]: 5 µM | Cmax [31]: 10 µM | Cmax [32]: 17 µM | AUC(0-t) at 24 h [33]: 24 µM·h | AUC(0-t) at 24 h [34]: 127 µM·h | AUC(0-t) at 24 h [35]: 49 µM·h | AUC(0-t) at 24 h [36]: 86 µM·h | AUC(0-t) at 24 h [37]: 179 µM·h | AUC(0-t) at 24 h [38]: 3 µM·h | half-life [39]: 4 h | clearance [40]: 6 mL/min/kg | Vd [41]: 2 L/kg | bioavailability [42]: 100%
